Results reported in paper PMC12615753, “Glutathione as a taste modulator: molecular mechanisms of interaction with umami and sweet taste receptors” (Food Chemistry: Molecular Sciences, 2025).

Tests used:
[1] = molecular target: T1, hTAS1R2/hTAS1R3(r570–858) (Homo sapiens, UniProt Q7RTX0+Q8TE23, A579V/A607F/A718V/A733V/A735I/A808T/C675Y/C757R/D670N/F730L/G674S/G822E/H593Y/H712Q/L571S/L639M/L789Y/L798I/L800F/L816V/M689T/M713V/M818L/P605S/P630S/P826Q/Q627R/Q820L/R594W/R632S/R671W/R752Q/R790Q/R813K/R819W/S577C/S629R/S640A/S673C/T697A/T724M/T739V/T774I/V583T/V612I/V617F/V693A/V701M/V720E/V788A/V802A); experiment: Calcium assay, chimeric TAS1R3 co-expressed with hTAS1R2; format: cell-based, rat
T1 construct: hTAS1R3(r570–858) consists of the N-terminal extracellular domain of hTAS1R3 and the TMD of rTAS1R3; TMD of rTAS1R3 (r570–858); expressed in transfected cells
T1 sequence (Q8TE23 20-839, stated change not applied): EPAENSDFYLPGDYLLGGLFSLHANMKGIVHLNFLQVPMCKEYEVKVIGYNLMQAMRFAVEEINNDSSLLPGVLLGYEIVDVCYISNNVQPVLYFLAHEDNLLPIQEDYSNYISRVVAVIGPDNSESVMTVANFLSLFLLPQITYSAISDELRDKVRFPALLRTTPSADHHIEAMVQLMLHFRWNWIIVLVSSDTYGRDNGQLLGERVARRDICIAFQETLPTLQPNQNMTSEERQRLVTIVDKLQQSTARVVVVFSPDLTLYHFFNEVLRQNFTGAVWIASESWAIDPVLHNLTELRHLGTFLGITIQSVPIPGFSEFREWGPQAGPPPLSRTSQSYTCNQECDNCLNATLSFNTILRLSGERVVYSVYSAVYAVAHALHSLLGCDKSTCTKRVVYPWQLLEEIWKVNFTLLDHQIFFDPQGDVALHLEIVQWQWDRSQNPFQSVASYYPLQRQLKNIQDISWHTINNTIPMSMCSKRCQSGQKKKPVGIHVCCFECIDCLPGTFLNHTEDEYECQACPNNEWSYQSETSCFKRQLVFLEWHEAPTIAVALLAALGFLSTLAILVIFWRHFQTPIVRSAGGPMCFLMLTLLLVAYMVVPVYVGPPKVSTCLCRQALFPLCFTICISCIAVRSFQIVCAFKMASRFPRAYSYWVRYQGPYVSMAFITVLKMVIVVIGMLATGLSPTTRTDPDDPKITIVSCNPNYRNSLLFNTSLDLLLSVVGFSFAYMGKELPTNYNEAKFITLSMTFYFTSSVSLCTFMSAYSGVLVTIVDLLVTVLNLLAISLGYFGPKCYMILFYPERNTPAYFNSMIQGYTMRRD
T1 sequence (Q7RTX0 with tags, fused parts or gaps with the stated changes limits assumed): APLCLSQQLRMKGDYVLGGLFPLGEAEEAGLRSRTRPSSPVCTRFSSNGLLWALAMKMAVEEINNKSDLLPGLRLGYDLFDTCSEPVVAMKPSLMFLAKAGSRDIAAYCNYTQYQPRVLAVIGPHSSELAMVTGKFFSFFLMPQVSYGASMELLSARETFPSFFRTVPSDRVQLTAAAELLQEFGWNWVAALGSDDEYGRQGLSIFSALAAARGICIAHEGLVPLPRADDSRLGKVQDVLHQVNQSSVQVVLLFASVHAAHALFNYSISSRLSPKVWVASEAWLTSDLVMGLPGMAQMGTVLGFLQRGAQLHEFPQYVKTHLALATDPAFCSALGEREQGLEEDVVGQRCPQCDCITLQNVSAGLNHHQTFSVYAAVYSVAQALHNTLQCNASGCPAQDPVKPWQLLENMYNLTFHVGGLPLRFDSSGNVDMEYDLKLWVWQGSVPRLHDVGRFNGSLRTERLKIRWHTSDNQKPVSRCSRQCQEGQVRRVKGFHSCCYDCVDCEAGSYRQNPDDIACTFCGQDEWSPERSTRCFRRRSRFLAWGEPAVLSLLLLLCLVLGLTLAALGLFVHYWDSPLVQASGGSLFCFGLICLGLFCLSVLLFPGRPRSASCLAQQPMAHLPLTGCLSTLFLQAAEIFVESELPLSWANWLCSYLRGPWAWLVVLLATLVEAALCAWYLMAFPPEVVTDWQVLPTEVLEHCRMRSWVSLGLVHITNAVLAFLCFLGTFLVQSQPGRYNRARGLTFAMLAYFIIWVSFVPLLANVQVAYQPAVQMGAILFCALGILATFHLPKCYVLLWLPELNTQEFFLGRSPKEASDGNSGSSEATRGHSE
Source text: Chimeric Gα proteins, such as Gα16Gust44, Gα16Gi3 or Gα15i2, are widely used in the functional expression of TAS1R receptors ([Backes et al., 2015]; [Suess et al., 2015]; [Toda et al., 2021], [Toda et al., 2013], [Toda et al., 2018]; [Zhang et al., 2008]). Chimeric Gα15i2 (([Toda et al., 2013]), Supplementary data) was generated by replacing the last five residues of the C-terminal tail of rat Gα15i2 (EINLL) (UniProt number G3V6N8; https://www.uniprot.org/uniprot/) with the counterpart sequence from human GNAI2 (DCGLF) (UniProt number P04899-1) and cloning into the pcDNA3.1/Hygro vector (Invitrogen, Thermo Fisher Scientific, Illkirch, France) between the HindIII and NotI restriction sites, resulting in the plasmid pcDNA3.1-Gα15i2. Chimeric Gα16Gust44 construct have already been reported ([Raliou et al., 2011]). Briefly, Gα16Gust44 was generated by replacing the C-terminal of Gα16 with the C-terminal 44 residues of gustducin. As previously described, hTAS1R1 was amplified from human fungiform papillae cDNA and cloned and inserted into pcDNA3 (Invitrogen), generating pcDNA3-TAS1R1-WT (wild-type) ([Raliou et al., 2011]). […]

hTAS1R2/rTAS1R3(Mut1) = molecular target: T2, hTAS1R2/rTAS1R3(Mut1) (UniProt Q8TE23+Q923K1, A277V/L68N/R278H/S168G/S302A); experiment: Calcium assay, mutated rTAS1R3 co-expressed with hTAS1R2; format: cell-based, human, rat
T2 construct: The cDNA coding region of rTAS1R3 was synthesized with optimized-codon usage for human expression; expressed in transfected cells
T2 sequence (Q8TE23 20-839, stated change not applied): as the sequence (Q8TE23 20-839, stated change not applied) above
T2 sequence (Q923K1 21-858 L68N/S168G/A277V/R278H/S302A): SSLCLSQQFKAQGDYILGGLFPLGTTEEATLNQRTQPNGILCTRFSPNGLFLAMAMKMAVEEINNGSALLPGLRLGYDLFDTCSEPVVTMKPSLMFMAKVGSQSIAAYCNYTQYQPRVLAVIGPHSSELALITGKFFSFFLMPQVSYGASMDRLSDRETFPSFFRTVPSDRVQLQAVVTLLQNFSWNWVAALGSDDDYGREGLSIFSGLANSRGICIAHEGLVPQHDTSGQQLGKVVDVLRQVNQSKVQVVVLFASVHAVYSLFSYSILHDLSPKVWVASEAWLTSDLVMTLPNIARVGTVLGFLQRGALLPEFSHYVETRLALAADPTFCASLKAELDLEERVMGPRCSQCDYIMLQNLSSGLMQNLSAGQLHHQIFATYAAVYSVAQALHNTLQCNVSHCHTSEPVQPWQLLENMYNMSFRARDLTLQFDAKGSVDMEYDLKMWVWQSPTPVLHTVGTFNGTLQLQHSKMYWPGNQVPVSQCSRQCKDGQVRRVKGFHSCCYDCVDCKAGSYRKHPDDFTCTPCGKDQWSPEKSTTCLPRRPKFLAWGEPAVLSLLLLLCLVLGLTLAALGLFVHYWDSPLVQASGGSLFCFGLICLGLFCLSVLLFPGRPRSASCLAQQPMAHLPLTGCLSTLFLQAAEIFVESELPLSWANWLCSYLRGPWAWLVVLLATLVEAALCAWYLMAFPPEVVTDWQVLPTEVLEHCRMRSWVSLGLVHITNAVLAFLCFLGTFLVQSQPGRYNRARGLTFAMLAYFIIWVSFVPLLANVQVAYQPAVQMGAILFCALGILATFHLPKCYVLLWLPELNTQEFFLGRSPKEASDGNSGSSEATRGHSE
Method: HEK293T/17 cells (ATCC CRL-11268) were seeded into clear bottom black 96-well plates coated with poly-D-lysine at a density of 32500 cells/well in 100 μL of DMEM containing 4.5 g/L glucose and supplemented with penicillin/streptomycin, 2 mM GlutaMAX and 10 % dialyzed fetal bovine serum. The plates were incubated for 24 h at 37 °C and 7.3 % CO2 in a humidified atmosphere. After incubation, using Fugene® 4 K (0.46 μL/well, Promega, Illkirch, France), the cells were transiently transfected with pcDNA3-hTAS1R1-WT (60 ng/well) or TAS1R1 mutants, pcDNA4-rTAS1R3 (60 ng/well), pcDNA3-Gα15i2 (10 ng/well), and pGP-CMV-GCaMP6s (Addgene #40753; 10 ng/well) as a genetically encoded calcium indicator. […] After 20 s of basal fluorescence calcium measurement, the cells were stimulated via automatic injection of a range of compounds in eight wells, and the signal emission was recorded for an additional 70 s, via a FlexStation 3® fluorometric microplate reader (Molecular Devices, San Jose, CA, USA). […] The emitted fluorescence was measured at a wavelength of 510 nm after excitation at 488 nm. […] For each well, the decrease in the raw fluorescence as the relative fluorescence changed was calculated as ΔF/F0. Replicates were averaged for the wells subjected to the same stimuli, the background signal was subtracted, and the fluorescence changes in mock-transfected cells were subtracted. […]

EC50 ([1]; sucralose alone, Fig. 3B) | EC50 (hTAS1R2/rTAS1R3(Mut1); sucralose alone, Fig. 4A) | SMILES | effect of GSH on the response to sucralose [1] | effect of 10 mM GSH on the response to sucralose (hTAS1R2/rTAS1R3(Mut1))
– | – | N[C@@H](CCC(=O)N[C@@H](CS)C(=O)NCC(=O)O)C(=O)O [GSH, γ-L-glutamyl-L-cysteinyl-glycine] | unaffected | not increased
67 ± 1 µM | 283 ± 55 µM | OC[C@H]1O[C@H](O[C@]2(CCl)O[C@H](CCl)[C@@H](O)[C@@H]2O)[C@H](O)[C@@H](O)[C@H]1Cl [sucralose, reference compound] | – | –
